Test results published in US20230416227A1, “PLASMA KALLIKREIN INHIBITORS” (Merck Sharp & Dohme LLC, priority 2020, published 2023).

Tests used:
[1] = target: T1, Human plasma kallikrein (Homo sapiens, UniProt P03952); test: Plasma Kallikrein Assay; format: biochemical; details: purified Human plasma kallikrein 0.5 nM, substrate Acetyl-K-P-R-AFC, pH 7.4
T1 construct: yields a heavy chain (371 amino acids) and a light chain (248 amino acids); purchased Enzyme Research Laboratories

[2] = target: human factor XIa (Homo sapiens, UniProt P03951); test: Factor XIa Assay; format: biochemical; details: human factor XIa 0.04 nM, substrate GPR-AFC, 30 min pre-incubation at 25° C., pH 7.4; read-out: FXIa IC50
Method: The effectiveness of a compound of the present invention as an inhibitor of Coagulation factor XIa can be determined using a relevant purified serine protease, and an appropriate synthetic substrate. The rate of hydrolysis of the chromogenic or fluorogenic substrate by the relevant serine protease was measured both in the absence and presence of compounds of the present invention. Assays were conducted at rt or at 37° C. […] A decrease in the rate of fluorescence change in the presence of inhibitor is indicative of enzyme inhibition. Such methods are known to one skilled in the art. The results of this assay are expressed as the half-maximal inhibitory concentrations (IC50), or the inhibitory constant, Ki.
Compounds were pre-incubated for 30 min at 25° C. with human (0.04 nM) factor XIa in 50 mM HEPES buffer with 150 mM sodium chloride, 5 mM calcium chloride, 0.1% PEG 8000, pH 7.4. factor XIa enzymatic activity was determined by addition of the substrate glycine-proline-arginine-7-amido-4-trifluoromethylcoumarin (GPR-AFC) and measurement of the fluorescence at 400/505 nm after a 60 min incubation at 25° C. The % inhibition for each data point was calculated from the data and analyzed using the log (inhibitor) vs. response four parameters equation to determine the half-maximal inhibitory concentrations (IC50). The IC50 were converted to equilibrium inhibitory constants (Ki) using the Cheng-Prusoff equation.

T1 sequence (P03952 391-638 limits assumed): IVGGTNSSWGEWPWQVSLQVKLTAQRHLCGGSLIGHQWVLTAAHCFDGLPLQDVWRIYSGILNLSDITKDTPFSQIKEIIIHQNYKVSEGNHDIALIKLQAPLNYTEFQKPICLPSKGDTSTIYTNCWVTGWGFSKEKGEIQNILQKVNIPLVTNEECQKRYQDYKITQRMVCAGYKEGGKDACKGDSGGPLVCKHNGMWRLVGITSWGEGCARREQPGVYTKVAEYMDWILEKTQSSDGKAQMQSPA
T1 sequence (P03952 20-390 partner limits assumed): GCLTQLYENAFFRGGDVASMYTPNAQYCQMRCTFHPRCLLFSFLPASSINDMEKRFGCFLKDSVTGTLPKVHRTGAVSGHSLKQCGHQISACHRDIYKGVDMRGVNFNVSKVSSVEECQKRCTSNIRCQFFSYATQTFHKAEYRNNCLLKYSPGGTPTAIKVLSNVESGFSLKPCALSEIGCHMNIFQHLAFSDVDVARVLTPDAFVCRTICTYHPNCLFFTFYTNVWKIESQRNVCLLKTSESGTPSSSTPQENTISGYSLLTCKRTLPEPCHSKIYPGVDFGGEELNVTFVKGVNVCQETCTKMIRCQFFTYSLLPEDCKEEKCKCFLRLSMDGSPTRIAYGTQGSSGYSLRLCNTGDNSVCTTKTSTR
human factor XIa, sequence (P03951 388-625 limits assumed): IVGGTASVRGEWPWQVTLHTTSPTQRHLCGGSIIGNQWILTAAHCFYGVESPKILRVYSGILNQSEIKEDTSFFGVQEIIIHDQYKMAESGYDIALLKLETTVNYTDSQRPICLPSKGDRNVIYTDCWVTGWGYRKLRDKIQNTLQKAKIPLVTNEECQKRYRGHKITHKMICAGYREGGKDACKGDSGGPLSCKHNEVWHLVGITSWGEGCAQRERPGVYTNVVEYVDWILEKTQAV
human factor XIa, sequence (P03951 19-387 partner limits assumed): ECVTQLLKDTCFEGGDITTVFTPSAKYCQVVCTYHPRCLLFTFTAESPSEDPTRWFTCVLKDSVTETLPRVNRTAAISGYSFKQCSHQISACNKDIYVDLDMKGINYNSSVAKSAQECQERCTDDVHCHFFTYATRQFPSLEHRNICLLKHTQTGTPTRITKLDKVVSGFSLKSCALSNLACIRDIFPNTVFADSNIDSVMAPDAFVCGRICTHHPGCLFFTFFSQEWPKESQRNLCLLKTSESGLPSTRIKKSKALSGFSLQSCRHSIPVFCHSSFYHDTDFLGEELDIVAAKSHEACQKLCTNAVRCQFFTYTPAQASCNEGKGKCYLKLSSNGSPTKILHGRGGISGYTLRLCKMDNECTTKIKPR

IC50 [1] [µM]	IC50 [2] [µM]	Compound
0.0102	0.921	COc1ncc(-c2c(C(F)F)ccc(Cl)c2F)nc1C(=O)Nc1cnn(Cc2cnc(N3CCC3)nc2)c1 [Example 1, N-(1-((2-(Azetidin-1-yl)pyrimidin-5-yl)methyl)-1H-pyrazol-4-yl)-6-(3-chloro-6-(difluoromethyl)-2-fluorophenyl)-3-methoxypyrazine-2-carboxamide]
0.0015	9.18	CC(c1cnc(N2CC[C@H]2CN2C[C@@H](O)[C@H](F)C2)nc1)n1cc(NC(=O)c2cncc(-c3c(C(F)F)ccc(Cl)c3F)n2)cn1 (stereo partly drawn) [Example 169, 6-(3-Chloro-6-(difluoromethyl)-2-fluorophenyl)-N-(1-(1-(2-((S)-2-(((3R,4R)-3-fluoro-4-hydroxypyrrolidin-1-yl)methyl)azetidin-1-yl)pyrimidin-5-yl)ethyl)-1H-pyrazol-4-yl)pyrazine-2-carboxamide]
0.008	0.312	CCc1ncc(-c2c(C(F)F)ccc(Cl)c2F)nc1C(=O)Nc1cnn(Cc2cnc(N3CCC3)nc2)c1 [Example 14, N-(1-((2-(Azetidin-1-yl)pyrimidin-5-yl)methyl)-1H-pyrazol-4-yl)-6-(3-chloro-6-(difluoromethyl)-2-fluorophenyl)-3-ethylpyrazine-2-carboxamide]
0.0006	7.22	C[C@H]1[C@@H](O)CCN1C[C@@H]1CCCN1c1ncc(Cn2cc(NC(=O)c3cncc(-c4c(C(F)F)ccc(Cl)c4F)n3)cn2)cn1 [Example 146, 6-(3-Chloro-6-(difluoromethyl)-2-fluorophenyl)-N-(1-((2-((S)-2-(((2S,3S)-3-hydroxy-2-methylpyrrolidin-1-yl)methyl)pyrrolidin-1-yl)pyrimidin-5-yl)methyl)-1H-pyrazol-4-yl)pyrazine-2-carboxamide]
0.0259	3.71	CC(c1cnc(N2CC[C@H](O)C2)nc1)n1cc(NC(=O)c2cncc(-c3c(C(F)F)ccc(Cl)c3F)n2)cn1 (mixture of isomers) [Example 96, 6-(3-Chloro-6-(difluoromethyl)-2-fluorophenyl)-N-(1-((R and S)-1-(2-((S)-3-hydroxypyrrolidin-1-yl)pyrimidin-5-yl)ethyl)-1H-pyrazol-4-yl)pyrazine-2-carboxamide]
0.017	0.973	O=C(Nc1cnn(C2(c3cnc(N4CCC4)nc3)CC2)c1)c1cncc(-c2c(C(F)F)ccc(Cl)c2F)n1 [Example 21, N-(1-(1-(2-(Azetidin-1-yl)pyrimidin-5-yl)cyclopropyl)-1H-pyrazol-4-yl)-6-(3-chloro-6-(difluoromethyl)-2-fluorophenyl)pyrazine-2-carboxamide]
0.0032	3.33	CC(c1cnc(N2CC[C@H]2[C@@H](C)N2C[C@@H](O)[C@H](O)C2)nc1)n1cc(NC(=O)c2cncc(-c3c(C(F)F)ccc(Cl)c3F)n2)cn1 (stereo partly drawn) [Example 188, 6-(3-Chloro-6-(difluoromethyl)-2-fluorophenyl)-N-(1-(1-(2-((S)-2-((R)-1-((3R,4R)-3,4-dihydroxypyrrolidin-1-yl)ethyl)azetidin-1-yl)pyrimidin-5-yl)ethyl)-1H-pyrazol-4-yl)pyrazine-2-carboxamide]
0.0119	0.927	Cc1ncc(-c2c(C(F)F)ccc(Cl)c2F)nc1C(=O)Nc1cnn(C(C)c2cnc(N3CCC3)nc2)c1 (single isomer, unassigned) [Example 28, (R or S)-N-(1-(1-(2-(azetidin-1-yl)pyrimidin-5-yl)ethyl)-1H-pyrazol-4-yl)-6-(3-chloro-6-(difluoromethyl)-2-fluorophenyl)-3-methylpyrazine-2-carboxamide]
0.0136	8.43	C[C@@H](O)[C@H]1[C@H]2C[C@H]2CN1c1ncc(Cn2cc(NC(=O)c3cncc(-c4c(C(F)F)ccc(Cl)c4F)n3)cn2)cn1 [Example 87, 6-(3-Chloro-6-(difluoromethyl)-2-fluorophenyl)-N-(1-((2-((1S,2R,5R)-2-((R)-1-hydroxyethyl)-3-azabicyclo[3.1.0]hexan-3-yl)pyrimidin-5-yl)methyl)-1H-pyrazol-4-yl)pyrazine-2-carboxamide]
–	1.48	O=C(Nc1cnn(Cc2cnc(N3C[C@H]4C[C@H]4[C@H]3CN[C@H]3CCC[C@@H]3O)nc2)c1)c1cncc(-c2c(C(F)F)ccc(Cl)c2F)n1 [Example 149, 6-(3-Chloro-6-(difluoromethyl)-2-fluorophenyl)-N-(1-((2-((1R,2S,5S)-2-((((1S,2S)-2-hydroxycyclopentyl)amino)methyl)-3-azabicyclo[3.1.0]hexan-3-yl)pyrimidin-5-yl)methyl)-1H-pyrazol-4-yl)pyrazine-2-carboxamide]
0.0011	–	CC(c1cnc(N2CC[C@H]2[C@@H](C)N2CC(C(C)(C)O)C2)nc1)n1cc(NC(=O)c2cncc(-c3c(C(F)F)ccc(Cl)c3F)n2)cn1 (stereo partly drawn) [Example 191, 6-(3-Chloro-6-(difluoromethyl)-2-fluorophenyl)-N-(1-(1-(2-((S)-2-((R)-1-(3-(2-hydroxypropan-2-yl)azetidin-1-yl)ethyl)azetidin-1-yl)pyrimidin-5-yl)ethyl)-1H-pyrazol-4-yl)pyrazine-2-carboxamide]
0.0173	–	CC(c1cnc(N2Cc3ccncc3C2)nc1)n1cc(NC(=O)c2cncc(-c3c(C(F)F)ccc(Cl)c3F)n2)cn1 (centres unmarked) [Example 89, 6-(3-Chloro-6-(difluoromethyl)-2-fluorophenyl)-N-(1-(1-(2-(1,3-dihydro-2H-pyrrolo[3,4-c]pyridin-2-yl)pyrimidin-5-yl)ethyl)-1H-pyrazol-4-yl)pyrazine-2-carboxamide]
0.0305	–	O=C(Nc1cnn(Cc2ccc(N3CC[C@H]3CO)nc2)c1)c1cncc(-c2c(C(F)F)ccc(Cl)c2F)n1 [Example 126, (S)-6-(3-Chloro-6-(difluoromethyl)-2-fluorophenyl)-N-(1-((6-(2-(hydroxymethyl)azetidin-1-yl)pyridin-3-yl)methyl)-1H-pyrazol-4-yl)pyrazine-2-carboxamide]
3.77	–	CC1C2CC2CN1c1ncc(C(CO)n2cc(NC(=O)c3cncc(-c4c(C(F)F)ccc(Cl)c4F)n3)cn2)cn1 (single isomer, unassigned) [Example 51, 6-(3-Chloro-6-(difluoromethyl)-2-fluorophenyl)-N-(1-((R or S)-2-hydroxy-1-(2-((1R,2S,5S or 1S,2R, 5R)-2-methyl-3-azabicyclo[3.1.0]hexan-3-yl)pyrimidin-5-yl)ethyl)-1H-pyrazol-4-yl)pyrazine-2-carboxamide]
0.189	–	CC(c1cnc(N2CC3CC3C2C#N)nc1)n1cc(NC(=O)c2cncc(-c3c(C(F)F)ccc(Cl)c3F)n2)cn1 (single isomer, unassigned) [Example 198]
0.0073	–	CC(N)C1CCCN1c1ncc(Cn2cc(NC(=O)c3cncc(-c4c(C(F)F)ccc(Cl)c4F)n3)cn2)cn1 (single isomer, unassigned) [Example 156, N-(1-((2-(2-(1-Aminoethyl)pyrrolidin-1-yl)pyrimidin-5-yl)methyl)-1H-pyrazol-4-yl)-6-(3-chloro-6-(difluoromethyl)-2-fluorophenyl)pyrazine-2-carboxamide]
0.0216	–	CC(c1cnc(N2CC[C@H]2[C@@H](C)N[C@H](C)C(C)(C)O)nc1)n1cc(NC(=O)c2cncc(-c3c(C(F)F)ccc(Cl)c3F)n2)cn1 (stereo partly drawn) [Example 194, 6-(3-Chloro-6-(difluoromethyl)-2-fluorophenyl)-N-(1-(1-(2-((S)-2-((R)-1-(((R)-3-hydroxy-3-methylbutan-2-yl)amino)ethyl)azetidin-1-yl)pyrimidin-5-yl)ethyl)-1H-pyrazol-4-yl)pyrazine-2-carboxamide]
0.049	–	O=C(Nc1cnn(Cc2ccc(N3CCC(CO)C3)nc2)c1)c1cncc(-c2c(C(F)F)ccc(Cl)c2F)n1 (centres unmarked) [Example 132, 6-(3-Chloro-6-(difluoromethyl)-2-fluorophenyl)-N-(1-((6-(3-(hydroxymethyl)pyrrolidin-1-yl)pyridin-3-yl)methyl)-1H-pyrazol-4-yl)pyrazine-2-carboxamide]
0.0014	–	CC(c1cnc(N2CC[C@H]2CN2CCCC(C)(O)C2)nc1)n1cc(NC(=O)c2cncc(-c3c(C(F)F)ccc(Cl)c3F)n2)cn1 (stereo partly drawn) [Example 176, 6-(3-Chloro-6-(difluoromethyl)-2-fluorophenyl)-N-(1-(1-(2-((2S)-2-((3-hydroxy-3-methylpiperidin-1-yl)methyl)azetidin-1-yl)pyrimidin-5-yl)ethyl)-1H-pyrazol-4-yl)pyrazine-2-carboxamide]
0.0011	–	CC(c1cnc(N2CC[C@H]2CN2CC[C@H](O)[C@@H](C)C2)nc1)n1cc(NC(=O)c2cncc(-c3c(C(F)F)ccc(Cl)c3F)n2)cn1 (stereo partly drawn) [Example 180, 6-(3-Chloro-6-(difluoromethyl)-2-fluorophenyl)-N-(1-(1-(2-((S)-2-(((3S,4S)-4-hydroxy-3-methylpiperidin-1-yl)methyl)azetidin-1-yl)pyrimidin-5-yl)ethyl)-1H-pyrazol-4-yl)pyrazine-2-carboxamide]
